From patent US20120088800A1, “2-(SUBSTITUTED) (ARYLMETHYL, ARYLOXY and ARYLTHIO))-N-(SUBSTITUTED PYRIDIN-2-YL)-2-(SUBSTITUTED ARYL) COMPOUNDS AS SUBTYPE-SELECTIVE MODULATORS OF SPHINGOSINE-1-PHOSPHATE-3 (S1P3) RECEPTORS” (ALLERGAN, INC., priority 2009, published 2012)
Counter-ions that a name gives are not always drawn.

Tests used:
Type in all cases: cell-based
S1P1 = target: T1, S1P1 (Homo sapiens, UniProt P21453); assay: FLIPR calcium assay, cells expressing S1P1 and a G-protein; details: fluo-4 calcium signal compared to sphingosine 1-phosphate
T1 construct: expressed in transfected cells
Text: (§1) Novel compounds having this general structure were synthesized and tested for sphingosine 1-phosphate receptor (S1P) activity using the FLIPR assay. Cells expressing the receptor of interest (S1P1, S1P2 or S1P3) and a G-protein (Gqi5 or G16) are loaded with fluo-4, a calcium sensitive dye. After removal of excess dye by washing, the cells are placed in the FLIPR TETRA instrument. Baseline fluorescence readings are taken prior to addition the compound to be tested. Agonists will trigger the receptor to interact with the G-protein, leading to an increase in intracellular calcium. The increase in intracellular calcium causes an increase in the fluorescence of the cells, due to the presence of fluo-4. This fluorescence increase is recorded by the FLIPR TETRA. After the calcium transient signal has decreased towards baseline, the standard agonist sphingosine 1-phosphate is added. If the test compound is an antagonist, an initial calcium signal will not be generated and the antagonist will prevent the generation of a calcium signal from sphingosine 1-phosphate. The level of fluorescence is compared to that of sphingosine 1-phosphate, and the EC50 or IC50 of the compound determined by curve fitting.

S1P2 = target: T2, S1P2 (Homo sapiens, UniProt O95136); assay: FLIPR calcium assay, cells expressing S1P2 and a G-protein; details: fluo-4 calcium signal compared to sphingosine 1-phosphate
T2 construct: expressed in transfected cells
Text: as §1

S1P3 = target: T3, S1P3 (Homo sapiens, UniProt Q99500); assay: FLIPR calcium assay, cells expressing S1P3 and a G-protein; details: for EC50: fluo-4 calcium signal compared to sphingosine 1-phosphate, antagonist mode; for FLIPR (% Antagonism) S1P3: value in parentheses below the EC50, antagonism of sphingosine 1-phosphate signal
T3 construct: expressed in transfected cells
Text: as §1

T2 sequence (O95136 whole entry, species assumed): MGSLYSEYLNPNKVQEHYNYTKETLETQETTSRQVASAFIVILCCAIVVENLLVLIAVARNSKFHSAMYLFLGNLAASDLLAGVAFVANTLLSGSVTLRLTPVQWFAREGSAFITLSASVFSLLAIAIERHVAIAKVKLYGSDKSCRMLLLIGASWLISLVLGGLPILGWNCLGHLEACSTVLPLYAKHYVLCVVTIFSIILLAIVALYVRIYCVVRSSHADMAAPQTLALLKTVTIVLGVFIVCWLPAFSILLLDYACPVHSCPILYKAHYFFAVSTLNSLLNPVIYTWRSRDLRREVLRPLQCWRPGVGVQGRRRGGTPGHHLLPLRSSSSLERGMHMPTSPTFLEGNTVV
T3 sequence (Q99500 whole entry, species assumed): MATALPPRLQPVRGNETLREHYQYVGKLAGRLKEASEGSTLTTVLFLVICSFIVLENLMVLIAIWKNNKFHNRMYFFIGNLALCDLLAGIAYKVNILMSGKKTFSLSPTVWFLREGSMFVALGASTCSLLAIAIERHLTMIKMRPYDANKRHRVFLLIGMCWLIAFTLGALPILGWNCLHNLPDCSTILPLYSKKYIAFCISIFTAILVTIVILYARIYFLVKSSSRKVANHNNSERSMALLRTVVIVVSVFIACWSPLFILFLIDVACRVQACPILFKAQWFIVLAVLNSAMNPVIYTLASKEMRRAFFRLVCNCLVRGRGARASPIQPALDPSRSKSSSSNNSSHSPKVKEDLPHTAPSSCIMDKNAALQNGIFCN
T1 sequence (P21453 whole entry, species assumed): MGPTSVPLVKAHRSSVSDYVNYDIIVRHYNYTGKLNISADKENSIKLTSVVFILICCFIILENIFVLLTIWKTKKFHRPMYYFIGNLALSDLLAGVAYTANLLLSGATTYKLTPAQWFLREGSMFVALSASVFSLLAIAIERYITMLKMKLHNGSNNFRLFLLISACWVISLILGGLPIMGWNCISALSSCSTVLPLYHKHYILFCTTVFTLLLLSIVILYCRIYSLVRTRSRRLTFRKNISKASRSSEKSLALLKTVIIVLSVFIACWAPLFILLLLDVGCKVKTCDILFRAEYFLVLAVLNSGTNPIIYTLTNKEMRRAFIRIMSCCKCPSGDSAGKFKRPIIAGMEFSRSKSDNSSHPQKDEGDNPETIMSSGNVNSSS

Structure (SMILES) | EC50 (S1P1) | EC50 (S1P2) | EC50 (S1P3) | FLIPR (% Antagonism) S1P3 (S1P3)
Cc1cc(OC(C(=O)Nc2ccc(Cl)cn2)c2ccc(Cl)cc2)ccc1Cl.Cl (stereo not shown) [Example 1, 2-(4-chloro-3-methylphenoxy)-2-(4-chlorophenyl)-N-(5-chloropyridin-2-yl)acetamide hydrochloride] | > 8300 nM | > 8300 nM | 128 nM | (99) %
Cc1ccc(OC(C(=O)Nc2ccc(Br)cn2)c2ccc(Cl)cc2)cc1.Cl (stereo not shown) [Example 2, N-(5-bromopyridin-2-yl)-2-(4-chlorophenyl)-2-(p-tolyloxy)acetamide hydrochloride] | > 8300 nM | > 8300 nM | 185 nM | (100) %
COc1ccc(OC(C(=O)Nc2ccc(Cl)cn2)c2ccc(Cl)cc2)cc1.Cl (stereo not shown) [Example 3, 2-(4-chlorophenyl)-N-(5-chloropyridin-2-yl)-2-(4-methoxyphenoxy)acetamide hydrochloride] | > 8300 nM | > 8300 nM | 166 nM | (98) %
Cl.O=C(Nc1ccc(F)cn1)C(Oc1ccc(Br)cc1)c1ccc(Cl)cc1 (stereo not shown) [Example 4, 2-(4-bromophenoxy)-2-(4-chlorophenyl)-N-(5-fluoropyridin-2-yl)acetamide hydrochloride] | > 8300 nM | > 8300 nM | 325 nM | (97) %
Cl.O=C(Nc1ccc(Br)cn1)C(Oc1ccc(Br)cc1)c1ccc(Cl)cc1 (stereo not shown) [Example 5, 2-(4-bromophenoxy)-N-(5-bromopyridin-2-yl)-2-(4-chlorophenyl)acetamide hydrochloride] | > 8300 nM | > 8300 nM | 90 nM | (97) %
Cl.O=C(Nc1ccc(Cl)cn1)C(Oc1ccc(Br)cc1)c1ccc(Cl)cc1 (stereo not shown) [Example 6, 2-(4-bromophenoxy)-2-(4-chlorophenyl)-N-(5-chloropyridin-2-yl)acetamide hydrochloride] | > 8300 nM | > 8300 nM | 103 nM | (97) %
Cl.O=C(Nc1ccc(F)cn1)C(Oc1ccc(Cl)cc1)c1ccc(Cl)cc1 (stereo not shown) [Example 7, 2-(4-chlorophenoxy)-2-(4-chlorophenyl)-N-(5-fluoropyridin-2-yl)acetamide hydrochloride] | > 8300 nM | > 8300 nM | 316 nM | (97) %
Cl.O=C(Nc1ccc(Br)cn1)C(Oc1ccc(Cl)cc1)c1ccc(Cl)cc1 (stereo not shown) [Example 8, N-(5-bromopyridin-2-yl)-2-(4-chlorophenoxy)-2-(4-chlorophenyl)acetamide hydrochloride] | > 8300 nM | > 8300 nM | 15 nM | (97) %
Cl.O=C(Nc1ccc(Cl)cn1)C(Oc1ccc(Cl)cc1)c1ccc(Cl)cc1 (stereo not shown) [Example 9, 2-(4-chlorophenoxy)-2-(4-chlorophenyl)-N-(5-chloropyridin-2-yl)acetamide hydrochloride] | > 8300 nM | > 8300 nM | 27 nM | (97) %
O=C(Nc1ccc(Br)cn1)C(Sc1ccccc1)c1ccccc1 (stereo not shown) [Example 10, N-(5-bromopyridin-2-yl)-2-phenyl-2-(phenylthio)acetamide hydrochloride] | > 8300 nM | > 8300 nM | 256 nM | (100) %
COc1ccc(SC(C(=O)Nc2ccc(Br)cn2)c2ccc(Cl)cc2)cc1.Cl (stereo not shown) [Example 11, N-(5-bromopyridin-2-yl)-2-(4-chlorophenyl)-2-(4-methoxyphenylthio)acetamide hydrochloride] | > 8300 nM | > 8300 nM | 361 nM | (100) %
O=C(Nc1ccc(Br)cn1)C(Sc1ccc(F)cc1)c1ccc(Cl)cc1 (stereo not shown) [Example 14, N-(5-bromopyridin-2-yl)-2-(4-chlorophenyl)-2-(4-fluorophenylthio)acetamide hydrochloride] | > 8300 nM | > 8300 nM | 127 nM | (99) %
Cc1ccc(SC(C(=O)Nc2ccc(Br)cn2)c2ccc(Cl)cc2)cc1 (stereo not shown) [Example 16, N-(5-bromopyridin-2-yl)-2-(4-chlorophenyl)-2-(p-tolylthio)acetamide hydrochloride] | > 8300 nM | > 8300 nM | 256 nM | (100) %
O=C(Nc1ccc(Br)cn1)C(Sc1cccc(Cl)c1)c1ccccc1 (stereo not shown) [Example 20, N-(5-bromopyridin-2-yl)-2-(3-chlorophenylthio)-2-phenylacetamide hydrochloride] | > 8300 nM | > 8300 nM | 166 nM | (97) %
O=C(Nc1ccc(I)cn1)C(Sc1ccccc1)c1ccccc1 (stereo not shown) [Example 28, N-(5-iodopyridin-2-yl)-2-phenyl-2-(phenylthio)acetamide] | > 8300 nM | > 8300 nM | 310 nM | (101) %

The remaining lines, values ahead:

EC50 (S1P1) | EC50 (S1P2) | EC50 (S1P3) | FLIPR (% Antagonism) S1P3 (S1P3) | Structure (SMILES)
> 8300 nM | > 8300 nM | 376 nM | (99) % | COc1ccc(SC(C(=O)Nc2ccc(Cl)cn2)c2ccc(Cl)cc2)cc1 (stereo not shown) [Example 12, 2-(4-chlorophenyl)-N-(5-chloropyridin-2-yl)-2-(4-methoxyphenylthio)acetamide hydrochloride]
> 8300 nM | > 8300 nM | 198 nM | (99) % | O=C(Nc1ccc(Cl)cn1)C(Sc1ccc(F)cc1)c1ccc(Cl)cc1 (stereo not shown) [Example 13, 2-(4-chlorophenyl)-N-(5-chloropyridin-2-yl)-2-(4-fluorophenylthio)acetamide hydrochloride]
> 8300 nM | > 8300 nM | 240 nM | (98) % | Cc1ccc(SC(C(=O)Nc2ccc(Cl)cn2)c2ccc(Cl)cc2)cc1C (stereo not shown) [Example 15, 2-(4-chlorophenyl)-N-(5-chloropyridin-2-yl)-2-(3,4-dimethylphenylthio)acetamide hydrochloride]
> 8300 nM | > 8300 nM | 322 nM | (99) % | Cc1ccc(SC(C(=O)Nc2ccc(Cl)cn2)c2ccc(Cl)cc2)cc1 (stereo not shown) [Example 17, 2-(4-chlorophenyl)-N-(5-chloropyridin-2-yl)-2-(p-tolylthio)acetamide hydrochloride]
> 8300 nM | > 8300 nM | 133 nM | (97) % | O=C(Nc1ccc(Br)cn1)C(Sc1ccc(Cl)c(Cl)c1)c1ccccc1 (stereo not shown) [Example 18, N-(5-bromopyridin-2-yl)-2-(3,4-dichlorophenylthio)-2-phenylacetamide]
> 8300 nM | > 8300 nM | 106 nM | (97) % | O=C(Nc1ccc(Cl)cn1)C(Sc1ccc(Cl)c(Cl)c1)c1ccccc1 (stereo not shown) [Example 19, N-(5-chloropyridin-2-yl)-2-(3,4-dichlorophenylthio)-2-phenylacetamide]
> 8300 nM | > 8300 nM | 208 nM | (97) % | O=C(Nc1ccc(Cl)cn1)C(Sc1cccc(Cl)c1)c1ccccc1 (stereo not shown) [Example 21, 2-(3-chlorophenylthio)-N-(5-chloropyridin-2-yl)-2-phenylacetamide hydrochloride]
> 8300 nM | > 8300 nM | 104 nM | (97) % | O=C(Nc1ccc(Br)cn1)C(Sc1ccc(Cl)cc1)c1ccc(Cl)cc1 (stereo not shown) [Example 22, N-(5-bromopyridin-2-yl)-2-(4-chlorophenyl)-2-(4-chlorophenylthio)acetamide hydrochloride]
> 8300 nM | > 8300 nM | 173 nM | (97) % | O=C(Nc1ccc(Cl)cn1)C(Sc1ccc(Cl)cc1)c1ccc(Cl)cc1 (stereo not shown) [Example 23, 2-(4-chlorophenyl)-2-(4-chlorophenylthio)-N-(5-chloropyridin-2-yl)acetamide hydrochloride]
> 8300 nM | > 8300 nM | 230 nM | (99) % | O=C(Nc1ccc(Cl)cn1)C(Sc1ccc(Br)cc1)c1ccccc1 (stereo not shown) [Example 24, 2-(4-bromophenylthio)-N-(5-chloropyridin-2-yl)-2-phenylacetamide]
> 8300 nM | > 8300 nM | 286 nM | (99) % | O=C(Nc1ccc(Br)cn1)C(Sc1ccc(Br)cc1)c1ccccc1 (stereo not shown) [Example 25, 2-(4-bromophenylthio)-N-(5-bromopyridin-2-yl)-2-phenylacetamide]
> 8300 nM | > 8300 nM | 166 nM | (102) % | O=C(Nc1ccc(Cl)cn1)C(Sc1ccc(Cl)cc1)c1ccc(F)cc1 (stereo not shown) [Example 26, 2-(4-chlorophenylthio)-N-(5-chloropyridin-2-yl)-2-(4-fluorophenyl)acetamide]
> 8300 nM | > 8300 nM | 160 nM | (101) % | O=C(Nc1ccc(Cl)cn1)C(Sc1ccc(Cl)cc1)c1ccccc1 (stereo not shown) [Example 27, 2-(4-chlorophenylthio)-N-(5-chloropyridin-2-yl)-2-phenylacetamide]
